Our source for the Ki values is ChEMBL document CHEMBL4311967, “Continued exploration and tail approach synthesis of benzenesulfonamides containing triazole and dual triazole moieties as carbonic anhydrase I, II, IV and IX inhibitors” (Eur J Med Chem, 2019).

This test has as its target Carbonic anhydrase 9 (Homo sapiens, UniProt Q16790). Kind of test: Inhibition of human carbonic anhydrase 9 assessed as reduction in CO2 hydration incubated for 1 hr by phenol red staining-based stopped flow assay.

Consider `Cc1c(-c2nnc(SCC(=O)c3ccccc3)[nH]2)nnn1-c1ccc(S(N)(=O)=O)cc1`, for which the Ki turned out to be 3200 nM.
Regarding `Cc1c(-c2nnc(SCC(=O)c3ccc(Br)cc3)[nH]2)nnn1-c1ccc(S(N)(=O)=O)cc1`, the Ki is 2830 nM.
As for `NS(=O)(=O)c1ccc(-n2nnc(-c3nnc(SCC(=O)c4ccccc4)[nH]3)c2-c2ccccc2)cc1`, the figure is 135 nM.
As for `NS(=O)(=O)c1ccc(-n2nnc(-c3nnc(SCC(=O)c4ccc([N+](=O)[O-])cc4)[nH]3)c2-c2ccccc2)cc1`, the figure is 204 nM; as for `NS(=O)(=O)c1ccc(-n2nnc(-c3nnc(SCC(=O)c4cccc(Br)c4)[nH]3)c2-c2ccccc2)cc1`, 278 nM; as for `NC(=S)NNC(=O)c1nnn(-c2ccc(S(N)(=O)=O)cc2)c1-c1ccccc1`, 111 nM.
As for `Cc1ccc(C(=O)CSc2nnc(-c3nnn(-c4ccc(S(N)(=O)=O)cc4)c3C)[nH]2)cc1`, the figure is 3070 nM; as for `Cc1c(-c2nnc(SCC(=O)c3ccc(-c4ccccc4)cc3)[nH]2)nnn1-c1ccc(S(N)(=O)=O)cc1`, 226 nM.
As to `Cc1c(-c2nnc(SCC(=O)c3ccc(F)cc3)[nH]2)nnn1-c1ccc(S(N)(=O)=O)cc1`, the Ki came out at 3020 nM.
On to `Cc1c(-c2nnc(SCC(=O)c3cccc([N+](=O)[O-])c3)[nH]2)nnn1-c1ccc(S(N)(=O)=O)cc1`, for which the Ki stood at 2430 nM.
As for `Cc1ccc(C(=O)CSc2nnc(-c3nnn(-c4ccc(S(N)(=O)=O)cc4)c3-c3ccccc3)[nH]2)cc1`, the figure is 294 nM; as for `Cc1c(-c2nnc(SCC(=O)c3ccc(Cl)cc3)[nH]2)nnn1-c1ccc(S(N)(=O)=O)cc1`, 3190 nM; as for `NS(=O)(=O)c1ccc(-n2nnc(-c3nnc(SCC(=O)c4ccc(Cl)cc4)[nH]3)c2-c2ccccc2)cc1`, 477 nM.
With `Cc1c(-c2nnc(SCC(=O)c3cccc(Br)c3)[nH]2)nnn1-c1ccc(S(N)(=O)=O)cc1` the figure was 1470 nM; with `NS(=O)(=O)c1ccc(-n2nnc(-c3nnc(SCC(=O)c4ccc(F)cc4)[nH]3)c2-c2ccccc2)cc1`, 177 nM.
With `Cc1c(C(=O)NNC(N)=S)nnn1-c1ccc(S(N)(=O)=O)cc1` the figure was 2970 nM; with `Cc1c(-c2nnc(SCC(=O)c3ccc([N+](=O)[O-])cc3)[nH]2)nnn1-c1ccc(S(N)(=O)=O)cc1`, 3060 nM.
As to `Cc1c(-c2n[nH]c(=S)[nH]2)nnn1-c1ccc(S(N)(=O)=O)cc1`, the Ki is 1240 nM.
With `NS(=O)(=O)c1ccc(-n2nnc(-c3nnc(SCC(=O)c4ccc(Br)cc4)[nH]3)c2-c2ccccc2)cc1` the figure was 177 nM; with `NS(=O)(=O)c1ccc(-n2nnc(-c3nnc(SCC(=O)c4ccc(-c5ccccc5)cc4)[nH]3)c2-c2ccccc2)cc1`, 734 nM.
In the case of `NS(=O)(=O)c1ccc(-n2nnc(-c3n[nH]c(=S)[nH]3)c2-c2ccccc2)cc1`, the Ki was found to be 51 nM.
In the case of `NS(=O)(=O)c1ccc(-n2nnc(-c3nnc(SCC(=O)c4cccc([N+](=O)[O-])c4)[nH]3)c2-c2ccccc2)cc1`, the Ki was 192 nM.
